The results in this text go back to patent publication US6159705A, “Recombinant yeast cells for identifying receptor effectors” (Cadus Pharmaceutical Corporation, priority 1997, dated 2000).

Like-named read-outs stand apart in the source and are kept apart here. Where no end group is shown, it is not given here.

Series [1] relates to CY6571 yeast growth (HIS3 gene product). Nature of the series: Elimination of LIRMA growth, strain CY6571 (FPRL-1). It counts as cell-based, S. cerevisiae. The settings on record: CY6571, selective media. Here is the method: It was determined that the yeast growth on selective media that resulted from LIRMA was eliminated by the additional of 2.5 millimolar concentrations of 3-aminotriazole (AT). AT is an inhibitor of the HIS3 gene product that serves to reduce background growth. Therefore, selection protocols aimed at the identification of surrogate ligands for the FPRL-1 receptor were carried out at this concentration of AT.

The subject of series [2] is CY7467 yeast growth (HIS3 gene product). Nature of the series: Elimination of LIRMA growth, strain CY7467 (thrombin receptor). Type of series: cell-based, S. cerevisiae. The settings on record: CY7467, selective media. As to the method:
It was determined that the yeast growth on selective media that resulted from LIRMA was eliminated by the addition of 2.5 millimolar concentrations of 3-aminotriazole (AT). AT is an inhibitor of the HIS3 gene product that serves to reduce background growth. Therefore, selection protocols aimed at the identification of novel peptide ligands for the human thrombin receptor were carried out at this concentration of AT.

A further series concerns the target T1, FPRL-1 receptor (Homo sapiens, UniProt P25090).
T1 sequence (P25090 1-351): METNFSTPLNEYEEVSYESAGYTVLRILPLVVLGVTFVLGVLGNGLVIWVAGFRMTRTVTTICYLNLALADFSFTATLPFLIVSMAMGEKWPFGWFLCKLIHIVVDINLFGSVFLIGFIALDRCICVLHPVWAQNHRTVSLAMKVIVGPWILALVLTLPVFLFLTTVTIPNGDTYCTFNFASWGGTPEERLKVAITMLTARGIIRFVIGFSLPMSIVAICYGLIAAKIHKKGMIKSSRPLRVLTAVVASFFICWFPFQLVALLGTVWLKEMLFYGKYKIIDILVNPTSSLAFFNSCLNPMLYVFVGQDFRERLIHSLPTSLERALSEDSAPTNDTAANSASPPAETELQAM

In series [3] the test system is human orphan receptor FPRL-1. The series can be described thus: Growth on -Leu-Ura-His + 2.5 mM AT, yeast expressing FPRL-1. Type of series: cell-based. The settings on record: yeast bearing FPRL-1-encoding plasmid (CY6571), plasmids A1 and A3-A10. An excerpt: The yeast strain CY1141 (MATalpha far1*1441 tbt1-1 fus1-HIS3 can 1 ste14::trp1:;LYS2 ste3*1156 gpa1(41)-Galphai2 lys2 ura3 leu2 trp1 his3) was used in the experiments that follow. CY1141 contains a pheromone inducible HIS3 gene, fus1-HIS3 integrated at the FUS1 locus and a hybrid gene encoding the first 41 amino acids of GPA1 (yeast G alpha) fused to sequence encoding human G alphai2 (lacking codons encoding the N-terminal 33 amino acids) replacing GPA1 at its chromosomal locus. The yeast STE14 gene is disrupted to lower the basal level of signaling through the pheromone response pathway. The yeast a-factor receptor gene, STE3, is deleted. CY1141 was transformed with Cadus 2311 to yield CY6571, a strain expressing the human orphan receptor, FPRL-1.
It was determined that the yeast growth on selective media that resulted from LIRMA was eliminated by the additional of 2.5 millimolar concentrations of 3-aminotriazole (AT). AT is an inhibitor of the HIS3 gene product that serves to reduce background growth. […]
CY6571 was inoculated to 10 mls of standard synthetic media (SD) lacking leucine (-Leu) and incubated overnight at 30° C. […] The OD600 of each cell suspension was determined and crude plasmid isolations were done on 8-16 OD units of cells for each pool. […]

In the next series the test system is human thrombin receptor. The series can be described thus: Growth on -Leu-Ura-His + 2.5 mM AT, yeast expressing thrombin receptor. It counts as cell-based. The settings on record: yeast bearing thrombin receptor plasmid (CY7467). An excerpt:
The amplified product was purified by gel electrophoresis, restricted with NcoI and BamHI and ligated to NcoI and BamHI-cut CADUS 1871, a PGK promoter-driven expression vector, to yield CADUS 2260. Cloning into CADUS 1871 introduces a novel stop codon preceded by the triplet GlySerVal after the authentic carboxy terminal codon of the human thrombin receptor (threonine). In addition, an invertase signal sequence is fused to the authentic amino terminus of the receptor.
The yeast strain CY1141 (MATalpha far1*1442 tbt1-1 fus1-HIS3 can1 ste14::trp1::LYS2 ste3* 1156 gpal(41)-Galphai2 lys2 ura3 leu2 trp1 his3) was transformed with CADUS 2260 to yield strain CY7467, expressing the human thrombin receptor. CY7467 was inoculated to 10 mls of standard synthetic media (SD) lacking leucine (-Leu) and incubated overnight at 30 C. […] The OD600 of each cell suspension was determined and crude plasmid isolations were done on 8-16 OD units of cells for each pool. […]
Strain CY7467 was transformed with […] of each plasmid pool by electroporation. […] The cells from each of these plates were scraped into 5 mls of H2 O, the OD600 of the cell suspensions were determined and crude plasmid isolations were done on 8-16 OD units of yeast cells. […]

Method for FPRL-1 receptor: For verificatiin of pheromone pathway activation and quantification of the stimulation, the activity of the fus1 promoter was determined colorimetrically using a fus1-lacZ fusion in a parallel set of test strains. CY1141, described above, was used as the recipient strain for these experiments. […] Four strains (bearing the identical plasmids) were grown overnight in minimal media lacking leucine, uracil, and tryptophan, pH8.6. The overnight cultures were used to inoculate -Leu -Ura -Trp pH6.8 media and these new cultures were grown for approximately 4.5-5 hours to an OD600 of less than 0.4.

For `Nc1nc[nH]n1` [3-aminotriazole], the “concentration at which LIRMA growth was eliminated” value in series [1] and in series [2] was 2.5 millimolar throughout.

With SLLWLTCRPWEAM [peptide A1], the β-galactosidase activity with FPRL-1 receptor (R+ L+ (CY1141/CADUS 2311/peptide A1/CADUS 1584)) is 28 units; with FPRL-1 receptor (R- L+ (CY1141/CADUS 1289/peptide A1/CADUS 1584)) it was 3.5 units. The “stimulation over background levels of β-galactosidase” value with FPRL-1 receptor (yeast cy1141) came to 8 fold. Besides, the “growth advantage on media lacking histidine” value in series [3] was “conferred a growth advantage”.

For the molecule “VCPARYVLPGPVL [SEQ ID NO:45, peptide from random library, conferring growth via human thrombin receptor]”, in the series with human thrombin receptor, the “growth advantage on media lacking histidine” value is given as “conferred a growth advantage”.
